Results: patent US20090274676A1, “COMBINATION OF DEHYDROEPIANDROSTERONE OR DEHYDROEPIANDROSTERONE-SULFATE WITH A PDE-4 INHIBITOR FOR TREATMENT OF ASTHMA OR CHRONIC OBSTRUCTIVE PULMONARY DISEASE” (priority 2003, published 2009)
Where “and” joins values, the source holds several entries; their conditions need not be identical. Identical values can stand only once.

Assays:
[1] = Particle size of jet-milled / spray-dried anhydrous DHEA-S (Malvern Mastersizer X, light microscope); type: physicochemical; settings: for Mean particle size: spray dried, two batches
Procedure: Approximately 1 g sample was passed through the jet mill, once, and approximately 2 g sample were passed through the jet mill twice. […] The resulting solution was sonicated for 3 minutes and appeared fully dispersed. The dispersed solutions were tested on a Malvern Mastersizer X with a small volume sampler (SVS) attachment. One sample of dispersed material was tested 5 times. The median particle size or D (v, 0.5) of unmilled material was 52.56 μm and the % RSD (relative standard deviation) was 7.61 for the 5 values. The D (v, 0.5) for a single pass through the jet mill was 3.90 μm and the % RSD was 1.27, and the D (v, 0.5) from a double pass through the jet mill 3.25 μm and the % RSD was 3.10.
The solution was spray-dried with a B-191 Mini Spray-Drier (Buchi, Flawil, Switzerland) with an inlet temperature of 55° C., outlet temperature of 40° C., at 100% aspirator, at 10% pump, nitrogen flow at 40 mbar and spray flow at 600 units. The spray-dried product was suspended in hexane and Span85 surfactant added to reduce agglomeration. The dispersions were sonicated with cooling for 3-5 minutes for complete dispersion and the dispersed solutions tested on a Malvern Mastersizer X with a Small Volume Sampler (SVS) attachment. […] Visual examination by light microscope of the dispersions of each batch confirmed that spray drying produced small respirable size particles. The mean particle size was 2.4 μm and 2.0 μm for each batch, respectively.

[2] = Aerosolization of neat DHEA-S dihydrate, Acu-Breathe single-dose inhaler, fine particle fraction; type: physicochemical; settings: 30 L/min, IDL data
From the text: The single-dose Acu-Breathe device is used for evaluating DHEA-S.dihydrate. […] These blisters are actuated into the Andersen 8-stage cascade impactor at flow rates ranging from 30 to 75 L/min with a glass twin-impinger throat. Stages 1-5 of the Andersen impactor are rinsed together to obtain an estimate of the fine particle fraction. Pooling the drug collected from multiple stages into one assay make the method much more sensitive. […] Using a carrier with a larger particle size typically improves the aerosol properties of micronized drug substances.

With `C[C@]12CC[C@H](OS(=O)(=O)[O-])CC1=CC[C@@H]1[C@@H]2CC[C@]2(C)C(=O)CC[C@@H]12.[Na+]` [Anhydrous DHEA-S] the “Median particle size D (v, 0.5)” value ([1]; double pass through the jet mill) was 3.25 μm, the “Median particle size D (v, 0.5)” value ([1]; single pass through the jet mill) was 3.90 μm and the Mean particle size ([1]; Malvern Mastersizer X) was 5.07±0.70 μm and 6.66±0.91 μm. For the same compound, the Mean particle size ([1]; visual examination by light microscope) was 2.4 μm and 2.0 μm, the “Median particle size D (v, 0.5)” value ([1]; unmilled material) was 52.56 μm and the “Fine particle fraction (mass entering the impactor)” value [2] was “no detectable mass entered the impactor”.
